Laboratory results reported in ChEMBL document CHEMBL5528031, “Synthesis and antitumor activity of cyclopentane-fused anthraquinone derivatives” (Eur J Med Chem, 2024).
Calls of active or inactive are those of the source. No cut-off for these calls is given here.

Tested on: CAPAN-1
Assay: Antiproliferative activity against human CAPAN-1 cells assessed as inhibition of cell growth incubated for 72 hrs by MTT assay
Format: functional, cell-based
Conditions: CAPAN-1, 72 h

Structure (SMILES)	IC50
O=C1c2ccccc2C(=O)c2c(O)c3c(c(O)c21)CC(C(=O)NCCOCCO)C3	> 50 µM
O=C1c2ccccc2C(=O)c2c(O)c3c(c(O)c21)CC(C(=O)N[C@H]1CCNC1)C3	1.5 µM
NCCCNC(=O)C1Cc2c(O)c3c(c(O)c2C1)C(=O)c1ccccc1C3=O	3.6 µM

Tested on: HCT-116
Assay: Antiproliferative activity against human HCT-116 cells assessed as inhibition of cell growth incubated for 72 hrs by MTT assay
Format: functional, cell-based
Conditions: HCT-116, 72 h

Structure (SMILES)	IC50
O=C1c2ccccc2C(=O)c2c(O)c3c(c(O)c21)CC(C(=O)NCCOCCO)C3	> 50 µM
O=C1c2ccccc2C(=O)c2c(O)c3c(c(O)c21)CC(C(=O)N[C@H]1CCNC1)C3	1.5 µM
NCCCNC(=O)C1Cc2c(O)c3c(c(O)c2C1)C(=O)c1ccccc1C3=O	2.1 µM

Tested on: LN-229
Assay: Antiproliferative activity against human LN-229 cells assessed as inhibition of cell growth incubated for 72 hrs by MTT assay
Format: functional, cell-based
Conditions: LN-229, 72 h

Structure (SMILES)	IC50
O=C1c2ccccc2C(=O)c2c(O)c3c(c(O)c21)CC(C(=O)NCCOCCO)C3	> 50 µM
O=C1c2ccccc2C(=O)c2c(O)c3c(c(O)c21)CC(C(=O)N[C@H]1CCNC1)C3	5.1 µM
NCCCNC(=O)C1Cc2c(O)c3c(c(O)c2C1)C(=O)c1ccccc1C3=O	3.9 µM

Tested on: NCI-H1975
Assay: Antiproliferative activity against human NCI-H1975 cells assessed as inhibition of cell growth incubated for 72 hrs by MTT assay
Format: functional, cell-based
Conditions: NCI-H1975, 72 h

Structure (SMILES)	IC50
O=C1c2ccccc2C(=O)c2c(O)c3c(c(O)c21)CC(C(=O)NCCOCCO)C3	> 50 µM
O=C1c2ccccc2C(=O)c2c(O)c3c(c(O)c21)CC(C(=O)N[C@H]1CCNC1)C3	2.3 µM
NCCCNC(=O)C1Cc2c(O)c3c(c(O)c2C1)C(=O)c1ccccc1C3=O	3.3 µM

Tested on: Z-138
Assay: Antiproliferative activity against human Z138 cells assessed as inhibition of cell growth incubated for 72 hrs by MTT assay
Format: functional, cell-based
Conditions: Z-138, 72 h

Structure (SMILES)	IC50
O=C1c2ccccc2C(=O)c2c(O)c3c(c(O)c21)CC(C(=O)NCCOCCO)C3	> 50 µM
O=C1c2ccccc2C(=O)c2c(O)c3c(c(O)c21)CC(C(=O)N[C@H]1CCNC1)C3	1.8 µM
NCCCNC(=O)C1Cc2c(O)c3c(c(O)c2C1)C(=O)c1ccccc1C3=O	> 50 µM

Tested on: not listed separately
Assay: Antiproliferative activity against human DND41 cells assessed as inhibition of cell growth incubated for 72 hrs by MTT assay
Format: functional, cell-based
Conditions: DND41, 72 h

Structure (SMILES)	IC50
O=C1c2ccccc2C(=O)c2c(O)c3c(c(O)c21)CC(C(=O)NCCOCCO)C3	> 50 µM
O=C1c2ccccc2C(=O)c2c(O)c3c(c(O)c21)CC(C(=O)N[C@H]1CCNC1)C3	1.9 µM
NCCCNC(=O)C1Cc2c(O)c3c(c(O)c2C1)C(=O)c1ccccc1C3=O	43 µM

Tested on: HL-60
Assay: Antiproliferative activity against human HL-60 cells assessed as inhibition of cell growth incubated for 72 hrs by MTT assay
Format: functional, cell-based
Conditions: HL-60, 72 h

Structure (SMILES)	IC50
O=C1c2ccccc2C(=O)c2c(O)c3c(c(O)c21)CC(C(=O)NCCOCCO)C3	> 50 µM
O=C1c2ccccc2C(=O)c2c(O)c3c(c(O)c21)CC(C(=O)N[C@H]1CCNC1)C3	2.3 µM
NCCCNC(=O)C1Cc2c(O)c3c(c(O)c2C1)C(=O)c1ccccc1C3=O	45 µM

Tested on: K562
Assay: Antiproliferative activity against human K562 cells assessed as inhibition of cell growth incubated for 72 hrs by MTT assay
Format: functional, cell-based
Conditions: K562, 72 h

Structure (SMILES)	IC50
O=C1c2ccccc2C(=O)c2c(O)c3c(c(O)c21)CC(C(=O)NCCOCCO)C3	> 50 µM
O=C1c2ccccc2C(=O)c2c(O)c3c(c(O)c21)CC(C(=O)N[C@H]1CCNC1)C3	2.4 µM
NCCCNC(=O)C1Cc2c(O)c3c(c(O)c2C1)C(=O)c1ccccc1C3=O	3.7 µM

Tested on: not listed separately
Assay: Antiproliferative activity against multidrug resistant human K562/4 cells expressing P-gp assessed as inhibition of cell growth incubated for 72 hrs by MTT assay
Format: functional, cell-based
Conditions: K562/4, 72 h

Structure (SMILES)	IC50
O=C1c2ccccc2C(=O)c2c(O)c3c(c(O)c21)CC(C(=O)NCCOCCO)C3	> 50 µM
O=C1c2ccccc2C(=O)c2c(O)c3c(c(O)c21)CC(C(=O)N[C@H]1CCNC1)C3	4.8 µM
NCCCNC(=O)C1Cc2c(O)c3c(c(O)c2C1)C(=O)c1ccccc1C3=O	7.8 µM

Tested on: not listed separately
Assay: Cytotoxicity against hFB-hTERT6 cells assessed as inhibition of cell growth incubated for 72 hrs by MTT assay
Format: toxicity, cell-based
Conditions: human

Structure (SMILES)	IC50 at 72 h
O=C1c2ccccc2C(=O)c2c(O)c3c(c(O)c21)CC(C(=O)NCCOCCO)C3	> 50 µM
O=C1c2ccccc2C(=O)c2c(O)c3c(c(O)c21)CC(C(=O)N[C@H]1CCNC1)C3	4.2 µM
NCCCNC(=O)C1Cc2c(O)c3c(c(O)c2C1)C(=O)c1ccccc1C3=O	6.5 µM

Tested on: not listed separately
Assay: Octanol/water partition coefficient, logP of compound at pH 7.4 by HPLC analysis
Format: physicochemical
Conditions: not given

Structure (SMILES)	logD
CC(=O)[C@]1(O)Cc2c(O)c3c(c(O)c2[C@@H](O[C@H]2C[C@H](N)[C@H](O)[C@H](C)O2)C1)C(=O)c1c(O)cccc1C3=O [CARUBICIN]	0.95

Tested on: Calf thymus DNA
Assay: Binding affinity to calf thymus DNA assessed as binding constant at 10 uM by fluorescence spectroscopy analysis
Format: nucleic-acid assay
Conditions: Bos taurus

Structure (SMILES)	Kb
O=C1c2ccccc2C(=O)c2c(O)c3c(c(O)c21)CC(C(=O)NCCOCCO)C3	0.011 10^6/M

Tested on: Calf thymus DNA
Assay: Binding affinity to calf thymus DNA assessed as dissociation constant at 10 uM by fluorescence spectroscopy analysis
Format: nucleic-acid assay, Bos taurus
Conditions: not given

Structure (SMILES)	Kd
O=C1c2ccccc2C(=O)c2c(O)c3c(c(O)c21)CC(C(=O)NCCOCCO)C3	90 µM

Tested on: DNA
Assay: Binding affinity to pBR322 plasmid DNA (unknown origin) assessed as DNA intercalation by measuring reduction in electrophoretic shift at 5 to 20 uM incubated for 30 mins by EtBr staining based agarose gel electrophoresis
Format: nucleic-acid assay
Conditions: dose 5-20 µM

Structure (SMILES)	Activity
Cc1oc2c(O)c3c(c(O)c2c1C(=O)N1CC[C@H](N)C1)C(=O)c1ccccc1C3=O	inactive
O=C1c2ccccc2C(=O)c2c(O)c3c(c(O)c21)CC(C(=O)NCCOCCO)C3	inactive

Molecular target: T1, DNA topoisomerase 1 (Homo sapiens) (UniProt P11387)
T1 sequence (whole entry): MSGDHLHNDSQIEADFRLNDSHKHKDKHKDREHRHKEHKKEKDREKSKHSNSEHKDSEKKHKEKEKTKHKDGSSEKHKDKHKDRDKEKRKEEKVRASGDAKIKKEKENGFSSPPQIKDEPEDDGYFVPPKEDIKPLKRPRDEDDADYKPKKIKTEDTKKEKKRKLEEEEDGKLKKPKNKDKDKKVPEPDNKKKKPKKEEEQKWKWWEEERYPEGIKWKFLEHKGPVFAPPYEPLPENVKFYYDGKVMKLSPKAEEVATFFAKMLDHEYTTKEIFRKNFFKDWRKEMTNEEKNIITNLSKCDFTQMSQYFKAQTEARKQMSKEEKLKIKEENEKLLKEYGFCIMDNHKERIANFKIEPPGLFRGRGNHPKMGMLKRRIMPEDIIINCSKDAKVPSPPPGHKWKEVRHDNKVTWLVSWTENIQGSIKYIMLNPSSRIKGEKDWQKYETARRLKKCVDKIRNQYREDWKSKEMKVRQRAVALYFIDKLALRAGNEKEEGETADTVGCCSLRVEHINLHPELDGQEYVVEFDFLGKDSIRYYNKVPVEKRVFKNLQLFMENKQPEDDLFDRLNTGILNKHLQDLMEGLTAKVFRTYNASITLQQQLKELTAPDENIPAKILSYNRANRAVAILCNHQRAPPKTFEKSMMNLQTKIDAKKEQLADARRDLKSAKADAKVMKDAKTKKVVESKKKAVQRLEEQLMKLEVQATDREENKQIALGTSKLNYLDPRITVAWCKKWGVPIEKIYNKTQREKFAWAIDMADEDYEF
Assay: Inhibition of topoisomerase 1 (unknown origin) assessed as reduction in unwinding of supercoiled pBR322 plasmid DNA by measuring reduction in electrophoretic mobility at 20 uM incubated for 30 mins by EtBr staining based agarose gel electrophoresis
Conditions: not given

Structure (SMILES)	inhibition
Cc1oc2c(O)c3c(c(O)c2c1C(=O)N1CC[C@H](N)C1)C(=O)c1ccccc1C3=O	Active

Tested on: not listed separately
Assay: Drug uptake in human HCT-116 cells assessed as increase in intracellular accumulation at 2 uM measured after 24 hrs by Hoechst 33342 staining based fluorescence confocal microscopic analysis
Format: ADME, cell-based
Conditions: hct-116, 24 h

Structure (SMILES)	Drug uptake
O=C1c2ccccc2C(=O)c2c(O)c3c(c(O)c21)CC(C(=O)NCCOCCO)C3	Not Active

Tested on: not listed separately
Assay: Drug uptake in hFB-hTERT6 cells
Format: ADME, cell-based
Conditions: human

Structure (SMILES)	Drug uptake
O=C1c2ccccc2C(=O)c2c(O)c3c(c(O)c21)CC(C(=O)NCCOCCO)C3	Not Active

Tested on: not listed separately
Assay: Drug uptake in human HCT-116 cells assessed as increase in intracellular accumulation at 2 uM measured after 24 hrs by flow cytometry analysis
Format: ADME, cell-based
Conditions: hct-116, 24 h

Structure (SMILES)	Drug uptake
O=C1c2ccccc2C(=O)c2c(O)c3c(c(O)c21)CC(C(=O)NCCOCCO)C3	Not Active
